{"source": "paper PMC6934184", "about": "“Selective DNA-PKcs inhibition extends the therapeutic index of localized radiotherapy and chemotherapy” (The Journal of Clinical Investigation, 2019)", "biological_target": "T1, EPHB2 (Homo sapiens, UniProt P29323)", "T1 construct": "purchased Thermo Fisher Scientific (Life Technologies) SelectScreen", "T1 sequence (P29323 19-1055)": "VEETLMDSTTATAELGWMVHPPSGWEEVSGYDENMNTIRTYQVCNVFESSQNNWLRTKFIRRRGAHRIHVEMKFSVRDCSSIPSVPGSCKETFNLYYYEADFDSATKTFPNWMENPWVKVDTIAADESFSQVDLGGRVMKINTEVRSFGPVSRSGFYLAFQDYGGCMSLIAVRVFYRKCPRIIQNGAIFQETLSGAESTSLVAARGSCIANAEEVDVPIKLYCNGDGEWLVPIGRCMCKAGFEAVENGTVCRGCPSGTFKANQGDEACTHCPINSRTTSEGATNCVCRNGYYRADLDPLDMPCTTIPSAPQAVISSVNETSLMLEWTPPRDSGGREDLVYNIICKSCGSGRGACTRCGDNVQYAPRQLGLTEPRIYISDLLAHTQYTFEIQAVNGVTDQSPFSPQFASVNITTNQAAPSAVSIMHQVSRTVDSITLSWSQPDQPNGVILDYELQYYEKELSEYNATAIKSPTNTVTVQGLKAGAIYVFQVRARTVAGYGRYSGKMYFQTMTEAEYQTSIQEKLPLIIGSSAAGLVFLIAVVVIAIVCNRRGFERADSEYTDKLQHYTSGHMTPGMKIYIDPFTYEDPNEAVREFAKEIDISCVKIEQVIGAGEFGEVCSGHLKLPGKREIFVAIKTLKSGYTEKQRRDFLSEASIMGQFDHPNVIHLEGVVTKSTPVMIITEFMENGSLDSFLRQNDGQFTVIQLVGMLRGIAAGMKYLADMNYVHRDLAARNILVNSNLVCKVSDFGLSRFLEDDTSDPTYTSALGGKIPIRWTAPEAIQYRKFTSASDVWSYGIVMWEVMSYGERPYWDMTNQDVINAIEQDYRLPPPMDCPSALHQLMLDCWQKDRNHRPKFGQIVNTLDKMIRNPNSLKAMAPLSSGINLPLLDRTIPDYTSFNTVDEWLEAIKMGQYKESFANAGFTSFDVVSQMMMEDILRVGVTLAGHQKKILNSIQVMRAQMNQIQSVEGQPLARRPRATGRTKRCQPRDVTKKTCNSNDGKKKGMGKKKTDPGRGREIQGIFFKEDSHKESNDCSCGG", "assay": "SelectScreen Z'LYTE", "assay_type": "biochemical", "in_short": "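Percent values come from Thermo SelectScreen profiling of NU5455, combining activity and binding assays. CSF1R was run in Z'LYTE format at Km app ATP, and CAMK1 in Adapta format with ATP listed at 10.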", "data": [{"smiles": "CN(C(=O)CN1CCOCC1)c1ccc2sc3c(-c4cccc5c(=O)cc(N6CC7CCC(C6)O7)oc45)cccc3c2c1", "note": "[NU5455]", "values": [{"measurement": "inhibition at 1 µM", "result": -0.1, "unit": "%"}]}]}
